Legend:
Assay type in all cases: in vivo
[1] = tested on: bleomycin-induced pulmonary fibrosis model in rats; assay: Dexamethasone side effect indicators (blood lipid metabolism) in the bleomycin-induced rat pulmonary fibrosis model; conditions: FIG. 3; for leptin level compared with the normal control rats: bleomycin model rats
Method: (§1) The quarantine and domestication period was 1 week, after which rats were serpentinely grouped by body weight into control and interstitial pneumonia model groups. On day 0 of the study, rats in the model group were given a single dose of 5 mg/kg bleomycin by a single intratracheal injection of bleomycin. The rats in the control group were given a single drop of saline. Immediately after completion, the animals were placed in an upright position and rotated to facilitate uniform distribution of the drug in the lungs. The animals were placed prone in a warm environment for natural awakening. Animals were fed and watered freely after awakening.
Serum potassium, glucose, triglycerides (TGs), total cholesterol (TC), free fatty acid (FFA), high density lipoprotein (HDL-c), low density lipoprotein (LDL-c), corticosterone (Corticosterone), and blood glucose were measured. HDL-c), low-density lipoprotein cholesterol (LDL-c), corticosterone (CORT), insulin, leptin, 5-hydroxy tryptamine (5-HT), […] norepinephrine (NE).

[2] = tested on: bleomycin-induced pulmonary fibrosis model in rats; assay: Pro-fibrotic proteins and type I collagen in lung tissue of the bleomycin-induced rat pulmonary fibrosis model; conditions: FIG. 2; for multiple pro-fibrotic proteins and collagen type I in rat lung tissues (overall statement): compared with the model group, N=3
Method: as §1
(§2) After the last administration, rats in each group were fasted without water for 12 h, anesthetized by intraperitoneal injection of […] chloral hydrate (3.5 mL/kg), blood was taken from the abdominal aorta, and the serum was separated by centrifugation at 3500 rpm for 15 min. ELISA was performed to detect the cytokines TNF-α, IL-1β, IFN-γ, IL-6, TGF-β1, and IL-4 in alveolar lavage fluid and serum, MCP-1/CCL2, and to detect the content of HYP, MMP2, MMP9, αvβ6, and VEGF in lung tissues, the steps were the same as the standard procedure of the kit.

[3] = tested on: bleomycin-induced rat model of pulmonary fibrosis; assay: Blood inflammatory and pro-fibrotic cytokines (ELISA) in the bleomycin-induced rat model of pulmonary fibrosis; conditions: for bleomycin-induced changes of multiple inflammatory cytokines in the blood of rats (overall statement): compared with the model group, N=6-10
Method: as §1, §2

[4] = bleomycin model rats, change statistically significant
[5] = SD rats, bleomycin 5 mg/kg intratracheal day 0, drug by gavage once daily days 1-28, FIG. 1
[6] = bleomycin decreased the level, drug once daily days 1-28, FIG. 1

With `C[C@@H]1C[C@H]2[C@@H]3CCC4=CC(=O)C=C[C@]4(C)[C@@]3(F)[C@@H](O)C[C@]2(C)[C@@]1(O)C(=O)CO` [dexamethasone] the “leptin level compared with the normal control rats” value [1] was “significantly reduced”, the “total cholesterol in the blood” value ([1]; dexamethasone treatment in bleomycin model rats) was “increase” and the “triglycerides in the blood” value ([1]; dexamethasone treatment in bleomycin model rats, increase more pronounced than for total cholesterol) was “increase”.

For `CCCCCC(=O)O[C@]1(C(C)=O)CC[C@H]2[C@@H]3CCC4=CC(=O)CC[C@]4(C)[C@H]3CC[C@@]21C` [hydroxyprogesterone caproate], the “CXCL-12 level in lung tissue” value ([2]; bleomycin model rats) was “reduced”, the “MMP9 level in lung tissue” value ([2]; bleomycin model rats) was “reduced” and the “collagen type I COL I protein level in lung tissue” value ([2]; bleomycin model rats) was “reduced”. For the same compound, the “MMP2 level in lung tissue” value [2, 4] was “reduced”, the “PDGF level in lung tissue” value [2, 4] was “reduced” and the “SMAD2 level in lung tissue” value [2, 4] was “reduced”. The “SMAD3 level in lung tissue” value [2, 4] was “reduced”, the “TGF-β1 level in lung tissue” value [2, 4] was “reduced” and the “multiple pro-fibrotic proteins and collagen type I in rat lung tissues (overall statement)” value [2] was “significant inhibitory effects”. For the same compound, the “multiple pro-fibrotic proteins and collagen type I in rat lung tissues (overall statement)” value ([2]; listed as 17-αhydroxyprogesterone) was “significantly ameliorated”, the “blood level of IL-1β” value [3, 5] was “significantly reduced” and the “blood level of IL-6” value [3, 5] was “significantly reduced”. For the same compound, the “blood level of MCP-1” value [3, 5] was “significantly reduced”, the “blood level of TGF-β1” value [3, 5] was “significantly reduced” and the “blood level of TNF-α” value [3, 5] was “significantly reduced”. For the same compound, the “blood level of IFN-γ” value [3, 6] was “significantly and statistically increased”, the “blood level of IL-4” value [3, 6] was “significantly and statistically increased” and the “bleomycin-induced changes of multiple inflammatory cytokines in the blood of rats (overall statement)” value ([3]; FIG. 1) was “significantly improve”. For the same compound, the “bleomycin-induced changes of multiple inflammatory cytokines in the blood of rats (overall statement)” value ([3]; FIG. 1, listed as 17-αhydroxyprogesterone) was “significantly ameliorated”, the “combined improvement effect on inflammatory and pro-fibrotic factors in the blood, compared with pirfenidone” value ([3]; versus positive control drug pirfenidone (54 mg/kg)) was “significantly better than that of the positive control drug pirfenidone” and the “leptin level compared with the normal control rats” value [1] was “significantly reduced”.

Source: patent publication US20240299415A1, “TREATMENT METHOD FOR INTERSTITIAL PNEUMONIA” (priority 2020, published 2024)
